Laboratory results reported in PubChem BioAssay AID1996.
Converted amounts (≈) assume the structure as drawn.

Conditions: buffer; pH 7.4; 200.0 µM
For `O=C(C1CCCN1S(=O)(=O)c1ccc(Cl)cc1)N1CCN(c2ccccc2)CC1` (centres undefined), the solubility kinetic was 15.3 µg/mL (≈ 35.3 µM).
For `COc1ccc(OC)c(N2C(=O)CC(=O)NC2=O)c1`, the solubility kinetic was greater than 39.6 µg/mL.
In the case of `CCOC(=O)C1CCN(C(=O)Nc2ccc(C)c(Cl)c2)CC1`, the solubility kinetic is reported as 6.9 µg/mL (≈ 21.2 µM).
For `CCOC(=O)c1c(C)[nH]c(-c2csc(C)n2)c1C`, the solubility kinetic was 27.5 µg/mL (≈ 104 µM).
Compound `CCCCOc1ccc(/C=C(\C(=O)O)c2ccc(S(=O)(=O)N3CCCC3)s2)cc1` has a solubility kinetic greater than 65.3 µg/mL.
For `O=C(NCc1ccco1)c1ccc(NS(=O)(=O)c2cccc(F)c2)cc1`, the solubility kinetic was greater than 56.2 µg/mL.
`CN(C)c1cc[n+](CC(=O)Nc2cccc([N+](=O)[O-])c2)cc1.[Cl-]` showed a solubility kinetic greater than 50.5 µg/mL.
`CNS(=O)(=O)c1ccc2c3c(cccc13)C(=O)N2` gave a solubility kinetic of 27.7 µg/mL (≈ 106 µM).
With `O=C(CCNC(=O)c1ccccc1Cl)Nc1ccc(S(=O)(=O)Nc2nccs2)cc1` the solubility kinetic was greater than 69.7 µg/mL.
Work on `COc1cc(C(=O)OCC#N)ccc1OCc1c(C)noc1C` yielded a solubility kinetic of 4 µg/mL (≈ 12.6 µM).
For `COc1ccc(S(=O)(=O)NCCCc2ccccc2)cc1`, the solubility kinetic was 40.8 µg/mL (≈ 134 µM).
With `Cc1nc(C)c(C(=O)OCC(=O)Nc2cccc(C)c2C)s1` the solubility kinetic was 39.7 µg/mL (≈ 125 µM).
`CC(=NCc1ccc2c(c1)OCO2)c1c(O)n(-c2ccccc2)c(=O)[nH]c1=O` gave a solubility kinetic of 6.6 µg/mL (≈ 17.4 µM).
With `O=C(OCC(=O)c1ccc[nH]1)c1ccccc1` the solubility kinetic was 32.2 µg/mL (≈ 140 µM).
`CC(=O)N/C(=C/c1ccc2c(c1)OCO2)C(=O)N1CCOCC1` gave a solubility kinetic of 45 µg/mL (≈ 141 µM).
Work on `COc1cccc(NC(=O)N2CCCC2C(=O)NCc2ccco2)c1` (centres undefined) yielded a solubility kinetic of 47.6 µg/mL (≈ 139 µM).
Work on `CC(=O)C1=C(O)C(=O)N(Cc2ccco2)C1c1cccc(F)c1` (centres undefined) yielded a solubility kinetic greater than 47.3 µg/mL.
Work on `CC1=Nc2ccccc2N=C(NC(=O)/C=C/C(=O)O)C1c1ccccc1` (centres undefined) yielded a solubility kinetic greater than 52.1 µg/mL.
`O=C1/C(=C/c2ccc([N+](=O)[O-])cc2)CCC1C1CCCC1` (centres undefined) showed a solubility kinetic of 1 µg/mL (≈ 3.5 µM).
`O=C1/C(=C/c2ccc([N+](=O)[O-])cc2)Oc2cc(O)ccc21` gave a solubility kinetic of 6.1 µg/mL (≈ 21.5 µM).
`COC1CCCN(Cc2nc(Cc3ccccc3F)no2)C1` (centres undefined) showed a solubility kinetic of 37.9 µg/mL (≈ 124 µM).
For `CC(=O)N1CCN(CC(=O)Nc2ccc(C#N)c(Cl)c2)CC1`, the solubility kinetic was greater than 48.1 µg/mL.
For `CC(=O)NC1C(=O)N=C(SCC(=O)Nc2c(C)cccc2C)NC1=O` (centres undefined), the solubility kinetic was greater than 54.4 µg/mL.
With `Cc1ccc(S(=O)(=O)CC(=O)c2ccccc2[N+](=O)[O-])cc1` the solubility kinetic was 42.8 µg/mL (≈ 134 µM).
Work on `CCOC(=O)Cn1c(=O)n(Cc2ccccc2)c(=O)c2cccnc21` yielded a solubility kinetic of 7.6 µg/mL (≈ 22.4 µM).
In the case of `Cc1[nH]c2ccccc2c1CN1CCN(c2ccccn2)CC1`, the solubility kinetic is reported as 44.4 µg/mL (≈ 145 µM).
`COc1cc2c(cc1OC)CC(=O)NC=C2` showed a solubility kinetic greater than 32.9 µg/mL.
In the case of `CC(C)(C)C(=O)O/N=C(\N)c1ccc(Oc2cc(Cl)cc(Cl)c2)c([N+](=O)[O-])c1`, the solubility kinetic is reported as less than 0.3 µg/mL.
With `CN(C(=O)COc1ncnc2sccc12)C1CCCCC1` the solubility kinetic was greater than 45.8 µg/mL.
`CN(C)CCNC(=O)Cc1ncc(C(F)(F)F)cc1Cl` showed a solubility kinetic greater than 46.5 µg/mL.
With `CNC(=S)N(CCO)Cc1cc2cc3c(cc2[nH]c1=O)OCO3` the solubility kinetic was 19.6 µg/mL (≈ 58.4 µM).
With `CCc1ccc(NC(=O)COC(=O)c2cccs2)cc1` the solubility kinetic was 2.8 µg/mL (≈ 9.68 µM).
Compound `Cc1cccc(NC(=O)C(C)Oc2ccc(C)nc2[N+](=O)[O-])c1` (centres undefined) has a solubility kinetic greater than 47.3 µg/mL.
For `CC(C)N1CCN(Cc2ccc3nsnc3c2)CC1CCO` (centres undefined), the solubility kinetic was greater than 48.1 µg/mL.
`O=C(Nc1c(-c2ccccc2)nc2ccccn12)c1cccc(F)c1` gave a solubility kinetic of 1.4 µg/mL (≈ 4.23 µM).
With `O=C(COC(=O)CNC(=O)C1CCCCC1)Nc1ccccc1OC(F)F` the solubility kinetic was greater than 57.7 µg/mL.
`O=C1CNC(=S)N1C1CCCCCC1` showed a solubility kinetic of 23.8 µg/mL (≈ 112 µM).
For `CCOP(=O)(c1ccc(N(C)C)cc1)C(O)c1ccccc1F` (centres undefined), the solubility kinetic was greater than 50.6 µg/mL.
In the case of `Cc1noc(C)c1-c1nc(CSc2ccc(Cl)cc2)no1`, the solubility kinetic is reported as less than 0.2 µg/mL.
`O=C(Nc1ccc(S(=O)(=O)N2CCCCC2)cc1)C1CCCO1` (centres undefined) showed a solubility kinetic of 39.9 µg/mL (≈ 118 µM).
In the case of `CC(Oc1ccccc1Cl)C(=O)N1CCCN(C)CC1` (centres undefined), the solubility kinetic is reported as greater than 44.5 µg/mL.
With `Cn1c(=O)c2c(ncn2CC(O)CNc2ccc(F)cc2)n(C)c1=O` (centres undefined) the solubility kinetic was greater than 52.1 µg/mL.
`O=C(COC(=O)c1cccc(F)c1)NC1CC1` gave a solubility kinetic greater than 35.6 µg/mL.
Compound `O=C(NCc1ccccc1F)C12CC3CC(CC(C3)C1)C2` has a solubility kinetic of 1 µg/mL (≈ 3.48 µM).
Work on `COc1ccc(NC(=O)CN(C)C(=O)c2ccc(=O)[nH]c2)cc1` yielded a solubility kinetic greater than 47.3 µg/mL.
`CC(=O)N1c2ccccc2CCc2ccc(N)cc21.Cl` gave a solubility kinetic greater than 43.3 µg/mL.
`Cc1ccc(S(=O)(=O)NCC(=O)NCC2CCCCC2)cc1C` showed a solubility kinetic greater than 50.8 µg/mL.
Compound `CC1CCCC(NC(=O)Cn2cc(Br)ccc2=O)C1C` (centres undefined) has a solubility kinetic greater than 51.2 µg/mL.
In the case of `COc1cc(C(=O)NCC(=O)Nc2c(C)cccc2C)ccc1OCC(=O)N1CCOCC1`, the solubility kinetic is reported as greater than 68.3 µg/mL.
Work on `COc1nccc(C(F)(F)F)c1C(=O)Nc1ccc(Cl)cc1` yielded a solubility kinetic of 1.6 µg/mL (≈ 4.84 µM).
Work on `Cc1cccc(/C(N)=N/OC(=O)CCCc2ccccc2)c1` yielded a solubility kinetic of 1.8 µg/mL (≈ 6.07 µM).
`O=C(COC(=O)c1cc(S(=O)(=O)N2CCOCC2)ccc1F)NCc1ccc2c(c1)OCO2` gave a solubility kinetic greater than 72.1 µg/mL.
For `CC1(C)C(=O)N(c2ccccc2)C1c1ccccc1O` (centres undefined), the solubility kinetic was greater than 40.1 µg/mL.
`S=C(Nc1cc(Cl)cc(Cl)c1)N1CCCC1` gave a solubility kinetic of 3 µg/mL (≈ 10.9 µM).
In the case of `COc1cccc(CNc2nc3ccccc3n2C(C)C)c1O`, the solubility kinetic is reported as 2.2 µg/mL (≈ 7.07 µM).
Compound `Cc1ccc(NS(=O)(=O)c2c(C)[nH]c(=O)[nH]c2=O)cc1F` has a solubility kinetic greater than 47 µg/mL.
With `Cc1ccc(C)c(C(=O)COc2ncnc3ccccc23)c1` the solubility kinetic was 9.2 µg/mL (≈ 31.5 µM).
`CC(=O)Nc1ccc(S(=O)(=O)NC(C)c2ccccc2)cc1` (centres undefined) showed a solubility kinetic greater than 47.8 µg/mL.
`Cc1ccc(NC(=O)c2cc3cccc([N+](=O)[O-])c3[nH]2)cc1` gave a solubility kinetic of 2.8 µg/mL (≈ 9.48 µM).
